The results in this text go back to US8198332B2, “Salicylamide derivatives as nicotinic alpha 7 modulators” (Roche Palo Alto LLC, priority 2008, dated 2012).

The target of this test is T1, human nicotinic alpha7 WT receptor (Homo sapiens, UniProt P36544).
T1 construct: expressed in transfected cells; host or cells: GH4C1 cells (rat pituitary-derived cell line), RPA clone #34.7
The test can be described thus: Nicotinic alpha 7 modulation assay (FLIPR, cytosolic Ca2+ elevation, FLUO-3). Type of test: cell-based. The protocol:
Cell Culture Growth Media: F10 medium (Invitrogen), 2.5% Fetal Bovine Serum (FBS, Summit Biotechnology); 15% heat inactivated donor Horse Serum (Invitrogen), 250 μg/ml Hygromycin B (Invitrogen); and 100 nM Methyllicaconite (MLA, Sigma) are added to each new culture by 50-fold dilution of stock solution prepared in H2O at […].
GH4C1 cells (rat pituitary-derived cell line) stably expressing human nicotinic alpha7 WT receptor (RPA clone #34.7) are cultivated in cell culture growth media (described above) at 37 C in a humidified atmosphere containing 4% CO2. […]
The alpha 7 nAChR assay is a cell-based functional readout designed to determine the effect of test compounds to either directly activate nicotinic receptor channels and/or to modulate activation by the native agonist acetylcholine (ACh, Sigma). […]
Assay of test compound effect on activation of the alpha7 nicotinic receptor channel is done by measurement of cytosolic [Ca^2+] elevation as reported by increased FLUO-3 fluorescence using a two addition experimental design and FLIPR™ (Molecular Devices). Following a 30 second baseline recording, test compounds are added online (dilution scheme below) and cell response is recorded for an additional 5 minutes. After a second addition of ACh (30 μM, FAC), plates are read for an additional 4 minutes. […]

T1 sequence (P36544 23-502): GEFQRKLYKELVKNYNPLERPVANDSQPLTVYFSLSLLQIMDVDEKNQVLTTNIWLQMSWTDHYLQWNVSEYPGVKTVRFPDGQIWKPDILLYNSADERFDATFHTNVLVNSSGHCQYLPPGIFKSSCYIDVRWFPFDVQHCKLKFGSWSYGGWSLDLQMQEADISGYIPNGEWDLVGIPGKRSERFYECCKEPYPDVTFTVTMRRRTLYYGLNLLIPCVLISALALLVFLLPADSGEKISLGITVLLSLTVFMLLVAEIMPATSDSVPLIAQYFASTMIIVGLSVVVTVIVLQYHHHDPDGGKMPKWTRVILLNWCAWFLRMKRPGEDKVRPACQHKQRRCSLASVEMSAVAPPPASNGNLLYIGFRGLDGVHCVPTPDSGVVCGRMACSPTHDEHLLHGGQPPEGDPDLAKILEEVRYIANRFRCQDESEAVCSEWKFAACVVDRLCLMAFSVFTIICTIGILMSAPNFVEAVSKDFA

The EC50 is the concentration that produces a half-maximal response. Read a high EC50 as a less potent agent. `C#CC1(NC(=O)c2cc(-c3ccc(OC)cc3C)ccc2OCC2CC2)CCCCC1` [I-6, 4-Cyclopropylmethoxy-4′-methoxy-2′-methyl-biphenyl-3-carboxylic acid (1-ethynyl-cyclohexyl)-amide] gave an EC50 of 220 nM. In addition, the positive allosteric modulation (GH4C1 cells stably expressing human nicotinic alpha7 WT receptor, FLIPR, second addition of ACh 30 μM) was 255%.
